According to patent US12202826B2, “N-pyridinyl acetamide derivatives as inhibitors of the Wnt signaling pathway” (Redx Pharma PLC, priority 2014, dated 2025):
pIC50: −log10 of the molar value.

Test system: L-Wnt cells (murine Wnt-3a) / Leading Light Wnt Reporter Cells (luciferase under control of Wnt pathway response elements)
Experiment: Dual-Cell β-Catenin Reporter Assay
Assay type: cell-based, Mouse
Conditions: luciferase signal reduced to 50% of DMSO control
Description: Dual-Cell β-Catenin Reporter Assay
Mouse L cells transfected to constitutively produce biologically active murine Wnt-3a, referred to as L-Wnt cells, were purchased from the American Type Culture Collection, ATCC, Manassas, VA (ATCC). These cells were cultured in DMEM supplemented with 10% FCS (Gibco/Invitrogen, Carlsbad, CA), 1% geneticin and 1% sodium pyruvate (Sigma) at 37° C. with 5% CO2. The cells were seeded into 96 well plates and treated with serial dilutions of compound diluted to 0.1% DMSO concentration. After 24 hours, cell supernatants were transferred to a 96 well plate previously seeded with Leading Light® Wnt Reporter Cells, stably transfected with a luciferase gene under control of Wnt pathway response elements. After a further 24 hours, cells are treated with One-glo luciferase assay system (Promega, Madison, WI) and the luminescent signal read by envision. The IC50 of the compound is determined as the concentration that reduces the induced luciferase signal to 50% of the DMSO control.
The category “+” refers to compounds with an IC50 of >100 μM. The category “++” refers to compounds with an IC50 of 5 to 100 μM. The category “+++” refers to compounds with an IC50<5 μM.

`Cc1nn(CC(=O)Nc2ccc(-c3cnccn3)cn2)c(C)c1C1=CC(C)OC(C)C1` (stereo not shown) [compound 82] gave a pIC50 (category of IC50) of over 8.30.
`Cc1nn(CC(=O)Nc2ccc(-c3cnccn3)cn2)c(C)c1-c1ccnc(N)c1` [compound 79] was tested, and the pIC50 (category of IC50) was 7.00 to 8.30.
`Cc1nn(CC(=O)Nc2ccc(-c3cnccn3)cn2)c(C)c1C1CCOCC1` [compound 40] showed a pIC50 (category of IC50) of over 8.30.
Molecule `Cc1nn(CC(=O)Nc2ccc(-c3cnccn3)cn2)c(C)c1C1CC(C)OC(C)C1` (stereo not shown) [compound 92] has a pIC50 (category of IC50) of 7.00 to 8.30.
For `Cc1nn(CC(=O)Nc2ccc(-c3cnccn3)cn2)cc1-c1ccnc(C(F)(F)F)c1` [compound 56], the pIC50 (category of IC50) was over 8.30.
With `CC(C)n1nccc1-c1cnn(CC(=O)Nc2ccc(-c3cnccn3)cn2)c1` [compound 43] the pIC50 (category of IC50) was under 7.00.
Molecule `Cc1cc(-c2c(C)nn(CC(=O)Nc3ccc(-c4cnccn4)cn3)c2C)ccn1` [compound 44] has a pIC50 (category of IC50) of over 8.30.
In the case of `Cc1nn(CC(=O)Nc2ccc(-c3cnccn3)cn2)c(C)c1-c1ccnc(N(C)C)c1` [compound 100], the pIC50 (category of IC50) was 7.00 to 8.30.
`Cc1c(-c2ccnc(C(F)(F)F)c2)ncn1CC(=O)Nc1ccc(-c2cccnc2)cn1` [compound 108] showed a pIC50 (category of IC50) of over 8.30.
For `O=C(Cn1cc(-c2ccncn2)cn1)Nc1ccc(-c2cnccn2)cn1` [compound 30], the pIC50 (category of IC50) was under 7.00.
For `O=C(Cc1cc(C2=CCOCC2)cs1)Nc1ccc(-c2cnccn2)cn1` [compound 28], the pIC50 (category of IC50) was 7.00 to 8.30.
Work on `O=C(Cn1cc(-c2ccnc(C(F)(F)F)c2)c(C(F)(F)F)n1)Nc1ccc(-c2cnccn2)cn1` [compound 95] yielded a pIC50 (category of IC50) of over 8.30.
Molecule `Cc1cc(-c2cnccn2)cnc1NC(=O)Cn1nc(C)c(-c2ccnc(C(F)(F)F)c2)c1C` [compound 76] has a pIC50 (category of IC50) of under 7.00.
With `O=C(Cn1cc(-c2ccnn2C2CCCC2)cn1)Nc1ccc(-c2cnccn2)cn1` [compound 45] the pIC50 (category of IC50) was under 7.00.
`Cc1ncc(-c2cnn(CC(=O)Nc3ccc(-c4cnccn4)cn3)c2)s1` [compound 29] was tested, and the pIC50 (category of IC50) was under 7.00.
With `O=C(Cn1cc(C2=CCOCC2)c(C(F)(F)F)n1)Nc1ccc(-c2cnccn2)cn1` [compound 88] the pIC50 (category of IC50) was over 8.30.
Molecule `Cc1nn(CC(=O)Nc2ccc(C3=CCS(=O)(=O)CC3)cn2)c(C)c1-c1ccnc(C(F)(F)F)c1` [compound 63] has a pIC50 (category of IC50) of 7.00 to 8.30.
Molecule `Cc1nn(CC(=O)Nc2ccc(C3CCOCC3)cn2)c(C)c1-c1ccnc(C(F)(F)F)c1` [compound 69] has a pIC50 (category of IC50) of 7.00 to 8.30.
For `Cc1nn(CC(=O)Nc2ccc(-c3ccc(C#N)nc3)cn2)c(C)c1-c1ccnc(C(F)(F)F)c1` [compound 66], the pIC50 (category of IC50) was over 8.30.
With `Cc1nn(CC(=O)Nc2ccc(-c3cnccn3)cn2)cc1C1=CCOCC1` [compound 89] the pIC50 (category of IC50) was 7.00 to 8.30.
`CC(=O)Nc1ccc(-c2ccc(NC(=O)Cn3cc(-c4ccnc(C(F)(F)F)c4)c(C)n3)nc2)cn1` [compound 103] was tested, and the pIC50 (category of IC50) was over 8.30.
Work on `Cc1nn(CC(=O)Nc2ccc(-c3ccccc3C#N)cn2)c(C)c1-c1ccnc(C(F)(F)F)c1` [compound 59] yielded a pIC50 (category of IC50) of over 8.30.
With `Cc1ncsc1-c1cnn(CC(=O)Nc2ccc(-c3cnccn3)cn2)c1` [compound 25] the pIC50 (category of IC50) was 7.00 to 8.30.
Molecule `COc1ccc(-c2ccc(NC(=O)Cn3cc(-c4ccnc(C(F)(F)F)c4)c(C)n3)nc2)cn1` [compound 98] has a pIC50 (category of IC50) of 7.00 to 8.30.
For `O=C(Cn1cc(-c2cc(C(F)(F)F)ncn2)cn1)Nc1ccc(-c2cnccn2)cn1` [compound 41], the pIC50 (category of IC50) was 7.00 to 8.30.
`Cc1cc(-c2cn(CC(=O)Nc3ccc(-c4cnccn4)cn3)nc2C)ccn1` [compound 90] was tested, and the pIC50 (category of IC50) was over 8.30.
`Cc1nn(CC(=O)Nc2ccc(-c3cccnc3)cn2)c(C)c1-c1ccnc(C(F)(F)F)c1` [compound 52] was tested, and the pIC50 (category of IC50) was over 8.30.
`Cc1nn(CC(=O)Nc2ccc(-c3cncnc3)cn2)c(C)c1-c1ccc(N(C)C)nc1` [compound 102] was tested, and the pIC50 (category of IC50) was 7.00 to 8.30.
In the case of `Cc1cc(-c2cnn(CC(=O)Nc3ccc(N4CCN(C(=O)OC(C)(C)C)CC4)cn3)c2)ccn1` [compound 8], the pIC50 (category of IC50) was 7.00 to 8.30.
`Cc1nn(CC(=O)Nc2ccc(C3=CCOCC3)cn2)c(C)c1-c1ccnc(C(F)(F)F)c1` [compound 49] was tested, and the pIC50 (category of IC50) was 7.00 to 8.30.
`Cc1nn(C(C)C(=O)Nc2ccc(-c3cnccn3)cn2)c(C)c1C1=CCOCC1` (stereo not shown) [compound 81] was tested, and the pIC50 (category of IC50) was over 8.30.
For `Cc1c(-c2ccnc(C(F)(F)F)c2)ncn1CC(=O)Nc1ccc(-c2ncccn2)cn1` [compound 105], the pIC50 (category of IC50) was over 8.30.
`Cc1nn(CC(=O)Nc2ccc(-c3cnccn3)cn2)c(C)c1-c1cn(C)nc1C(F)(F)F` [compound 70] gave a pIC50 (category of IC50) of 7.00 to 8.30.
`Cc1nn(CC(=O)Nc2ccc(-c3cncnc3)cn2)c(C)c1-c1ccnc(C(F)(F)F)c1` [compound 35] gave a pIC50 (category of IC50) of over 8.30 and a pIC50 of 9.47.
`Cc1nn(CC(=O)Nc2ccc(-c3cnccn3)cn2)c(C)c1-c1ccnn1C` [compound 50] gave a pIC50 (category of IC50) of 7.00 to 8.30.
Work on `Cc1nn(CC(=O)Nc2ccc(-c3ncccn3)cn2)c(C)c1-c1ccnc(C(F)(F)F)c1` [compound 65] yielded a pIC50 (category of IC50) of over 8.30.
Molecule `Cc1cc(-c2c(C)nn(CC(=O)Nc3ccc(-c4cnccn4)cn3)c2C)cnn1` [compound 51] has a pIC50 (category of IC50) of 7.00 to 8.30.
`O=C(Cn1cc(-c2ccnc(C(F)(F)F)n2)cn1)Nc1ccc(-c2cnccn2)cn1` [compound 37] gave a pIC50 (category of IC50) of over 8.30.
In the case of `Cc1cc(-c2ncn(CC(=O)Nc3ccc(-c4cnccn4)cn3)c2C)ccn1` [compound 87], the pIC50 (category of IC50) was over 8.30.
With `Cc1nn(CC(=O)Nc2ccc(-c3cnccn3)cn2)c(C)c1C1=CCOCC1` [compound 48] the pIC50 (category of IC50) was over 8.30.
`O=C(Cn1cc(-c2ccnc(C(F)(F)F)c2)cn1)Nc1ccc(-c2cnccn2)cn1` [compound 17] was tested, and the pIC50 (category of IC50) was over 8.30.
For `O=C(Cn1cnc(-c2ccnc(C(F)(F)F)c2)c1)Nc1ccc(-c2cnccn2)nc1` [compound 13], the pIC50 (category of IC50) was 7.00 to 8.30.
`Cc1nn(CC(=O)Nc2ccc(-c3cnccn3)cn2)c(C)c1-c1cnn(C2CC2)c1` [compound 58] showed a pIC50 (category of IC50) of 7.00 to 8.30.
Molecule `Cc1nn(CC(=O)Nc2ccc(-c3cncnc3)cn2)c(C)c1C1CC(C)OC(C)C1` (stereo not shown) [compound 96] has a pIC50 (category of IC50) of 7.00 to 8.30.
Work on `Cc1nn(CC(=O)Nc2ccc(-c3cnccn3)cn2)c(C)c1-c1ccc(N(C)C)nc1` [compound 101] yielded a pIC50 (category of IC50) of 7.00 to 8.30.
`O=C(Cn1cc(-c2cnsc2)cn1)Nc1ccc(-c2cnccn2)cn1` [compound 27] gave a pIC50 (category of IC50) of 7.00 to 8.30.
`Cc1nn(CC(=O)Nc2ccc(-c3ncccn3)cn2)c(C)c1C1CC(C)OC(C)C1` (stereo not shown) [compound 97] was tested, and the pIC50 (category of IC50) was 7.00 to 8.30.
`Cc1nn(CC(=O)Nc2ccc(-c3cnccn3)cn2)c(C)c1-c1ccnc(F)c1` [compound 61] showed a pIC50 (category of IC50) of over 8.30.
`Cc1nc(-c2ccnc(C(F)(F)F)c2)cn1CC(=O)Nc1ccc(-c2cnccn2)cn1` [compound 68] was tested, and the pIC50 (category of IC50) was over 8.30.
With `Cc1nn(CC(=O)Nc2ccc(-c3ccnn3C)cn2)c(C)c1-c1ccnc(C(F)(F)F)c1` [compound 55] the pIC50 (category of IC50) was over 8.30.
`Cc1nn(CC(=O)Nc2ccc(-c3cnccn3)cn2)c(C)c1-c1cnn(C(C)C)c1` [compound 62] showed a pIC50 (category of IC50) of 7.00 to 8.30.
`Cc1nn(CC(=O)Nc2ccc(-c3ccc(N(C)C)nc3)cn2)cc1-c1ccnc(C(F)(F)F)c1` [compound 99] showed a pIC50 (category of IC50) of over 8.30.
Molecule `Cc1nn(CC(=O)Nc2ncc(-c3cnccn3)cc2C#N)c(C)c1-c1ccnc(C(F)(F)F)c1` [compound 80] has a pIC50 (category of IC50) of 7.00 to 8.30.
`Cc1nn(CC(=O)Nc2ccc(-c3cnccn3)cn2)c(C)c1-c1ccnn1C1CCCC1` [compound 47] was tested, and the pIC50 (category of IC50) was under 7.00.
`Cc1nn(CC(=O)Nc2ccc(-c3cnccn3)cn2)c(C)c1-c1cc(Cl)ncn1` [compound 57] gave a pIC50 (category of IC50) of 7.00 to 8.30.
With `Cc1c(-c2ccnc(F)c2)ncn1CC(=O)Nc1ccc(-c2cnccn2)cn1` [compound 110] the pIC50 (category of IC50) was over 8.30.
For `Cc1nn(CC(=O)Nc2ccc(-c3ccnc(C#N)c3)cn2)c(C)c1-c1ccnc(C(F)(F)F)c1` [compound 71], the pIC50 (category of IC50) was over 8.30.
Molecule `O=C(Cn1cc(-c2ccnc(C(F)F)c2)cn1)Nc1ccc(-c2cnccn2)cn1` [compound 21] has a pIC50 (category of IC50) of over 8.30.
In the case of “tert-butyl 4-[1-[2-oxo-2-[(5-pyrazin-2-yl-2-pyridyl)amino]ethyl]pyrazol-4-yl]-3,6-dihydro-2H-pyridine-1-carboxylate [Example 16]”, the pIC50 (category of IC50) was 7.00 to 8.30.
`Cn1nccc1-c1cnn(CC(=O)Nc2ccc(-c3cnccn3)cn2)c1` [compound 26] was tested, and the pIC50 (category of IC50) was 7.00 to 8.30.
For `Cc1nn(CC(=O)Nc2ccc(-c3cnccn3)cn2)c(C)c1C1=CCN(C(=O)OC(C)(C)C)CC1` [compound 46], the pIC50 (category of IC50) was 7.00 to 8.30.
In the case of `Cc1nn(CC(=O)Nc2ccc(-c3cnccn3)cn2)c(C)c1-c1cc(N(C)C)nc(C(F)(F)F)n1` [compound 78], the pIC50 (category of IC50) was over 8.30.
`Cc1nn(CC(=O)Nc2ccc(-c3cncnc3)cn2)c(C)c1C1=CC(C)OC(C)C1` (stereo not shown) [compound 84] showed a pIC50 (category of IC50) of over 8.30.
`Cc1cc(-c2cn(CC(=O)Nc3ccc(-c4cncnc4)cn3)nc2C)ccn1` [compound 91] showed a pIC50 (category of IC50) of over 8.30.
In the case of `Cc1cc(-c2nc(C)n(CC(=O)Nc3ccc(-c4cnccn4)cn3)c2C)ccn1` [compound 86], the pIC50 (category of IC50) was over 8.30.
In the case of `Cc1nc(-c2ccnc(C(F)(F)F)c2)c(C)n1CC(=O)Nc1ccc(-c2cnccn2)cn1` [compound 72], the pIC50 (category of IC50) was over 8.30.
`COc1cc(-c2cnccn2)cnc1NC(=O)Cn1nc(C)c(-c2ccnc(C(F)(F)F)c2)c1C` [compound 77] showed a pIC50 (category of IC50) of 7.00 to 8.30.
`Cc1cc(-c2cnn(CC(=O)Nc3ccc(-c4cnccn4)cn3)c2)ncn1` [compound 39] gave a pIC50 (category of IC50) of under 7.00.
`Cc1nn(CC(=O)Nc2ccc(-c3ccncc3)cn2)c(C)c1-c1ccnc(C(F)(F)F)c1` [compound 60] gave a pIC50 (category of IC50) of 7.00 to 8.30.
`Cc1c(-c2ccnc(C(F)(F)F)c2)ncn1CC(=O)Nc1ccc(-c2ccnc(C#N)c2)cn1` [compound 109] gave a pIC50 (category of IC50) of 7.00 to 8.30.
For `O=C(Cn1cc(-c2ccnc(C(F)(F)F)c2)cn1)Nc1ccc(-c2cncnc2)cn1` [compound 34], the pIC50 (category of IC50) was over 8.30.
In the case of `Cc1nn(CC(=O)Nc2ccc(-c3cnccn3)cn2)c(C)c1C1=CCNCC1` [compound 53], the pIC50 (category of IC50) was under 7.00.
